Literature values as cited in patent publication US9510493B2, “Mixture of hydrofluoroolefin and fluoroketone for use as an insulation and/or ARC extinguishing medium and a gas insulated medium-voltage electrical device comprising same” (priority 2011, dated 2016).

Assays:
humans = details: average limit concentration, 8 hours per day for 5 days per week, without noxious effect
animal population = details: causing death of 50% of an animal population

Compound | occupational exposure limit OEL (humans) | lethal dose DL50 (animal population)
F/C=C/C(F)(F)F [HFO-1234ze, trans-1,3,3,3-tetrafluoro-1-propene] | 1 000 ppm | > 200 000 ppm
O=C(C(F)(F)F)C(F)(C(F)(F)F)C(F)(F)F [C5K, decafluoro-2-methylbutan-3-one] | 1 000 ppm | more than 200 000 ppm
